The target in this experiment is T1, full-length human PRMT3 isoform 1 (GST-tagged) (Homo sapiens, UniProt O60678).
T1 construct: GST-tagged PRMT3; made in house; host or cells: E. coli BL21(DE3) Gold
The experiment in a line: PRMT3 Biochemical Assay (3H-SAM Flashplate, peptide substrate). An excerpt: General Materials. S-adenosylmethionine (SAM), S-adenosylhomocysteine (SAH), bicine, Tween20, dimethylsulfoxide (DMSO), bovine skin gelatin (BSG),), isopropyl-β-D-thiogalactopyranoside (IPTG), and Tris(2-carboxyethyl)phosphine hydrochloride solution (TCEP) were purchased from Sigma-Aldrich at the highest level of purity possible. ^3H-SAM was purchase from American Radiolabeled Chemicals with a specific activity of 80 Ci/mmol. 384-well streptavidin Flashplates were purchased from PerkinElmer.
Substrates. Peptide containing the classic RMT substrate motif was synthesized with an N-terminal linker-affinity tag motif and a C-terminal amide cap by 21st Century Biochemicals. The peptide was purified by high-performance liquid chromatography (HPLC) to greater than 95% purity and confirmed by liquid chromatography mass spectrometry (LC-MS). The sequence was Biot-Ahx-[…]-amide (SEQ ID NO.:11).
Molecular Biology: Full-length human PRMT3 (NM_005788.3) isoform 1 transcript clone was amplified from an HEK 293 cDNA library and subcloned into pGEX-KG (GE Life Sciences). The resulting construct encodes an N-terminal GST tag and a thrombin cleavage sequence ([…] […] […] […] S) (SEQ ID NO.:12) fused directly to Cys 2 of PRMT3.
Protein Expression. E. coli (BL21(DE3) Gold, Stratagene) made competent by the CaCl2) method were transformed with the PRMT3 construct and ampicillin selection. Protein over-expression was accomplished by growing the PRMT3 expressing E. coli clone and inducing expression with 0.3 mM IPTG at 16° C. The culture was grown for 12 hours, harvested by centrifugation, and stored at −80° C. for purification.
Protein Purification. […] GST-tagged PRMT3 was eluted with 50 mM Tris, 2 mM glutathione, pH 7.1 and 50 mM Tris, 20 mM glutathione, pH 7.1. Pooled fractions were dialysed in 20 mM Tris, 50 mM NaCl, 5% glycerol, 1 mM EDTA, 1 mM DTT, pH7.5 (Buffer B) and applied to a Q Sepharose Fast Flow column. GST-tagged PRMT3 was eluted by 500 mM NaCl in buffer B. Pooled fractions were dialyzed in 25 mM phosphate buffer, 100 mM NaCl, 5% glycerol, 2 mM DTT, pH 6.8 (Buffer C) and loaded on to a ceramic hydroxyapatite column. GST-tagged PRMT3 eluted with 25-400 mM phosphate in buffer C. Protein was concentrated and buffer was exchanged to 20 mM Tris, 150 mM NaCl, 5% glycerol, 5 mM β-mercaptoethanol, pH7.8 by ultrafiltration. The purity of recovered protein was 70%.
General Procedure for PRMT3 Enzyme Assays on Peptide Substrates. The assays were all performed in a buffer consisting of 20 mM Bicine (pH=7.6), 1 mM TCEP, 0.005% BSG, and 0.002% Tween 20, prepared on the day of use. Compounds in 100% DMSO (1 ul) were spotted into a polypropylene 384-well V-bottom plates (Greiner) using a Platemate Plus outfitted with a 384-channel head (Thermo Scientific). DMSO (1 ul) was added to Columns 11, 12, 23, 24, rows A-H for the maximum signal control and 1 ul of SAH, a known product and inhibitor of PRMT3, was added to columns 11, 12, 23, 24, rows I-P for the minimum signal control. A cocktail (40 ul) containing the PRMT3 enzyme was added by Multidrop Combi (Thermo-Fisher). The compounds were allowed to incubate with PRMT3 for 30 min at room temperature, then a cocktail (10 ul) containing SAM and peptide was added to initiate the reaction (final volume=51 ul). The final concentrations of the components were as follows: PRMT3 was 0.5 nM, ^3H-SAM was 100 nM, non-radiolabeled SAM was 1.8 uM, peptide was 330 nM, SAH in the minimum signal control wells was 1 mM, and the DMSO concentration was 2%. The assays were stopped by the addition of potassium chloride (10 ul) to a final concentration of 100 mM. 50 ul of the reaction in the 384-well polypropylene plate was then transferred to a 384-well Flashplate and the biotinylated peptides were allowed to bind to the streptavidin surface for at least 1 hour before being washed once with 0.1% Tween20 in a Biotek ELx405 plate washer. […]

Setting [1] is: single experiment or average of multiple experiments.

The values that follow come from US11512053B2, “Arginine methyltransferase inhibitors and uses thereof” (priority 2013, dated 2022).

The IC50 is the concentration at which inhibition is half-maximal.

Like-named read-outs stand apart in the source and are kept apart here.

T1 sequence (O60678 with tags, fused parts or gaps): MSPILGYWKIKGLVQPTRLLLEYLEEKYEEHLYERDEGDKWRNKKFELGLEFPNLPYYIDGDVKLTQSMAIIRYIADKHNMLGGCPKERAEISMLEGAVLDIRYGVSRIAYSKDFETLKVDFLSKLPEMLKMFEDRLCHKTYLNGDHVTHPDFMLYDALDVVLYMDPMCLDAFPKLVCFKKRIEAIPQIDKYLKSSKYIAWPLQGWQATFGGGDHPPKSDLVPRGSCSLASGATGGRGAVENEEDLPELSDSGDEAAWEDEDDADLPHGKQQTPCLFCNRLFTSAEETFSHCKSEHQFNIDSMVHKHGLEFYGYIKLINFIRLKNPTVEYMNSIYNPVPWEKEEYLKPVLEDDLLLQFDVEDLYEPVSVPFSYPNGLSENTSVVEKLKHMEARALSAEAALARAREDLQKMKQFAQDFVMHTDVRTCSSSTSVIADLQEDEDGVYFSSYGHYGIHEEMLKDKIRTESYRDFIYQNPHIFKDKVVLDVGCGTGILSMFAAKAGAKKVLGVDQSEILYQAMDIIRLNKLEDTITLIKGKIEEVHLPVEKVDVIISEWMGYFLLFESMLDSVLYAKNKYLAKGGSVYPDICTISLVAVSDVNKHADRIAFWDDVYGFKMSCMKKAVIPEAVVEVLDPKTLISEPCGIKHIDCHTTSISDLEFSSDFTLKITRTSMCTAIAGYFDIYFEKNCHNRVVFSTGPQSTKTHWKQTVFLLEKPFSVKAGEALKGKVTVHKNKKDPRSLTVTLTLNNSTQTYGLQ

`CNCCN(C)Cc1c[nH]nc1C#Cc1cccc(OC)c1` [Compound 1] yielded an IC50 under setting [1] of 6.83 µM. Still for that read-out and setting: as for `CNCCN(C)Cc1c[nH]nc1C#Cc1ccc(C(C)(C)C)cc1` [Compound 2], the figure is 3 µM. As for `CNCCN(C)Cc1c[nH]nc1C#Cc1ccc(F)cc1` [Compound 4], the IC50 was > 10 µM. For the same compound, the half-inhibitory concentration (IC50) under setting [1] was > 10 µM. As for `CNCCN(C)Cc1c[nH]nc1/C=C/c1ccc(-c2ccccc2)cc1` [Compound 5], under setting [1], the half-maximal inhibitory concentration (IC50) was 1.45 µM.

In turn, `CNCCN(C)Cc1c[nH]nc1/C=C/c1ccc(C(F)(F)F)cc1` [Compound 6] displayed a half-inhibitory concentration (IC50) under setting [1] of 3.94 µM. Consider `CNCCN(C)Cc1c[nH]nc1/C=C/c1ccc(OC)cc1` [Compound 7], for which the IC50 under setting [1] turned out to be 5.91 µM.

Regarding `Cc1ccc(/C=C/c2n[nH]cc2CN(C)CCN)cc1` [Compound 8], under setting [1], the IC50 worked out at 5.81 µM. Turning to `CN(CCN)Cc1c[nH]nc1C1=CCOCC1` [Compound 10], the concentration for half-maximal inhibition (IC50) was > 10 µM. Further, under setting [1], the half-maximal inhibitory concentration (IC50) was > 10 µM.

Under setting [1], `COc1cc(/C=C/c2n[nH]cc2CN(C)CCN)cc(OC)c1` [Compound 11] had an IC50 of 1.58 µM. Consider `CN(CCN)Cc1c[nH]nc1C1CC1` [Compound 12], for which the IC50 was > 10 µM. In addition, under setting [1], the IC50 was > 10 µM.

`CN(CCN)Cc1c[nH]nc1/C=C/c1ccc(F)cc1F` [Compound 13] displayed a 50% inhibitory concentration (IC50) under setting [1] of 3.62 µM. The same measure, in the same setting: as for `CN(CCN)Cc1c[nH]nc1/C=C/c1cc(C(F)(F)F)cc(C(F)(F)F)c1` [Compound 14], the figure is 6.77 µM; as for `CN(CCN)Cc1c[nH]nc1/C=C/c1cc(F)cc(F)c1` [Compound 15], 2.34 µM. The compound `CN(CCN)Cc1c[nH]nc1/C=C/c1cccc(C(F)(F)F)c1` [Compound 16] displayed an IC50 under setting [1] of 5.79 µM. On the same count and under the same terms, as for `COc1cccc(/C=C/c2n[nH]cc2CN(C)CCN)c1` [Compound 17], the figure is 2.36 µM; as for `CN(CCN)Cc1c[nH]nc1/C=C/c1ccc(C(F)(F)F)cc1` [Compound 18], 1.75 µM. On the same count and under the same terms, the figure for `COC/C=C/c1n[nH]cc1CN(C)CCN` [Compound 19] is 7.74 µM; for `CN(CCN)Cc1c[nH]nc1/C=C/c1cccc(F)c1` [Compound 20] it is 2.34 µM. Consider `CC(C)c1n[nH]cc1CN(C)CCN` [Compound 21], for which the IC50 was > 10 µM. Further, under setting [1], the IC50 is > 10 µM. `CN(CCN)Cc1c[nH]nc1C1CCCCC1` [Compound 22] displayed an IC50 under setting [1] of 6.46 µM. As for `CN(CCN)Cc1c[nH]nc1CCc1ccc(F)cc1` [Compound 23, N^1-((3-(4-fluorophenethyl)-1H-pyrazol-4-yl)methyl)-N^1-methylethane-1,2-diamine], the 50% inhibitory concentration (IC50) under setting [1] stood at 9.65 µM. On to `CN(CCN)Cc1c[nH]nc1/C=C/Cc1ccccc1` [Compound 24], for which the half-maximal inhibitory concentration (IC50) is > 10 µM. The half-inhibitory concentration (IC50) under setting [1] is > 10 µM.
